{"source": "ChEMBL document CHEMBL1201862", "about": "“PubChem BioAssay data set” (2004)", "key": {"[1]": {"molecular_target": "Sphingosine 1-phosphate receptor 3 (Homo sapiens, UniProt Q99500)", "experiment": "Late-stage fluorescence-based dose-response cell-based counterscreen assay to identify agonists of the Sphingosine 1-Phosphate Receptor 4 (S1P4): Sphingosine 1-Phosphate Receptor 3 (S1P3) agonist assay Set 2.", "format": "functional"}, "[2]": {"molecular_target": "Sphingosine 1-phosphate receptor 1 (Homo sapiens, UniProt P21453)", "experiment": "Late-stage fluorescence-based dose-response cell-based counterscreen assay to identify agonists of the Sphingosine 1-Phosphate Receptor 4 (S1P4): Sphingosine 1-Phosphate Receptor 1 (S1P1) agonist assay Set 2.", "format": "functional"}, "[3]": {"molecular_target": "Sphingosine 1-phosphate receptor 2 (Homo sapiens, UniProt O95136)", "experiment": "activation of human S1P2 receptor – cell-based, fluorescence, set 2, counter-screen for S1P4 agonist project, late-stage follow-up (AID 504873)", "format": "functional"}, "[4]": {"molecular_target": "Sphingosine 1-phosphate receptor 5 (Homo sapiens, UniProt Q9H228)", "experiment": "activation of human S1P5 receptor – cell-based, fluorescence, set 2, counter-screen for S1P4 agonist project, late-stage follow-up (AID 504867)", "format": "functional"}, "CHO": {"test_system": "CHO", "experiment": "CHO cell viability loss, potency – luminescence, cytotoxicity control for TLR9-MyD88 binding inhibitor project, dose response (AID 588339);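 note: CHO cells stably coexpressing TLR9 and MyD88 fusions from primary screen; compound exposure lasted 48 hours before viability readout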", "format": "functional, cell-based, hamster", "settings": "Cricetulus griseus"}, "Beta Lactamase": {"molecular_target": "Beta Lactamase (Pseudomonas aeruginosa, UniProt Q932Y6)", "sequence (Q932Y6 whole entry)": "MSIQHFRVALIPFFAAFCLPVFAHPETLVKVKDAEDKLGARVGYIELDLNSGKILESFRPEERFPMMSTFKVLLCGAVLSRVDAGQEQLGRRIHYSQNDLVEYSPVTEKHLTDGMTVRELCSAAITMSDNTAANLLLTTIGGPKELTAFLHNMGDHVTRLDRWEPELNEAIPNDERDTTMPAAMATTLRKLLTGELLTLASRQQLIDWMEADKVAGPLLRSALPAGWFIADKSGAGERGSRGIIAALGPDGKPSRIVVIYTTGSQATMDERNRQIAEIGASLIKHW", "experiment": "BLA reporter interference, concentration series – BLA reporter cells, FRET fluorescence, artefact control for TLR9-MyD88 binding inhibitor project, dose response (AID 588341);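 note: cell based assay in CHO-K1 cells stably expressing beta-lactamase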", "format": "cell-based"}, "[5]": {"experiment": "Luminescence Cell-Based Dose Retest to Confirm Inhibitors of Cancer Stem Cells. [Related pubchem assays (depositor defined):AID2717, AID2721]", "format": "functional", "settings": "Homo sapiens"}, "[6]": {"molecular_target": "Neuropeptides B/W receptor type 1 (Homo sapiens, UniProt P48145)", "experiment": "human NPBW1 receptor blockade, IC50 – cell-based, fluorescence, dose response, set 6, late-stage follow-up (AID 588583)", "format": "functional"}, "[7]": {"molecular_target": "Melanin-concentrating hormone receptor 1 (Homo sapiens, UniProt Q99705)", "sequence (Q99705 whole entry)": "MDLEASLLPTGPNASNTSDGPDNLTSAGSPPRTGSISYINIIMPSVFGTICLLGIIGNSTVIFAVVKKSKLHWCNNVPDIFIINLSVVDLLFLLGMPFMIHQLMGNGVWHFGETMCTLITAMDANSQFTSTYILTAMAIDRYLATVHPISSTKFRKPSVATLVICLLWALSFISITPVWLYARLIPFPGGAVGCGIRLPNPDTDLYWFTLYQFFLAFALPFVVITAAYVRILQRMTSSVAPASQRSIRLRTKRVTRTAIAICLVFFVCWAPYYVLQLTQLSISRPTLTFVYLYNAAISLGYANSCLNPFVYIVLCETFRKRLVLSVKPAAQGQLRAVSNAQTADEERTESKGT", "experiment": "Late-stage fluorescence-based counterscreen for antagonists of the G-protein coupled receptor 7 (GPR7): cell-based dose response assay to identify antagonists of the melanin-concentrating hormone receptor 1 (MCHR1) Set 6.", "format": "functional"}, "[8]": {"molecular_target": "DNA dC->dU-editing enzyme APOBEC-3A (Homo sapiens, UniProt P31941)", "sequence (P31941 whole entry)": "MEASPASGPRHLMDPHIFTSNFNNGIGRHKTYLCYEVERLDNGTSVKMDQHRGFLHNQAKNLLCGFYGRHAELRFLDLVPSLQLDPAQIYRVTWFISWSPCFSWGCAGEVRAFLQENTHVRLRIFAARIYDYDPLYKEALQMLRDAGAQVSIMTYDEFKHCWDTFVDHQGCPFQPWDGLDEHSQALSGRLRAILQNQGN", "experiment": "SAR analysis of small molecule inhibitors of APOBEC3A DNA Deaminase via a fluorescence-based single-stranded DNA deaminase assay.", "format": "functional", "settings": "read-out: IC50_Mean"}, "[9]": {"molecular_target": "DNA dC->dU-editing enzyme APOBEC-3G (Homo sapiens, UniProt Q9HC16)", "experiment": "inhibition of APOBEC3G ssDNA deamination – biochemical, fluorescence, single-stranded DNA substrate, SAR follow-up (AID 602136)", "format": "functional", "settings": "read-out: IC50_Mean"}, "[10]": {"molecular_target": "Tyrosine-protein kinase Fyn (Homo sapiens, UniProt P06241)", "format": "functional"}, "[11]": {"molecular_target": "ALK tyrosine kinase receptor (Homo sapiens, UniProt Q9UM73)", "format": "functional"}, "[12]": {"molecular_target": "Serine/threonine-protein kinase TAO1 (Homo sapiens, UniProt Q7L7X3)", "format": "functional"}, "[13]": {"molecular_target": "Calcium/calmodulin-dependent protein kinase type II subunit alpha (Homo sapiens, UniProt Q9UQM7)", "sequence (Q9UQM7 whole entry)": "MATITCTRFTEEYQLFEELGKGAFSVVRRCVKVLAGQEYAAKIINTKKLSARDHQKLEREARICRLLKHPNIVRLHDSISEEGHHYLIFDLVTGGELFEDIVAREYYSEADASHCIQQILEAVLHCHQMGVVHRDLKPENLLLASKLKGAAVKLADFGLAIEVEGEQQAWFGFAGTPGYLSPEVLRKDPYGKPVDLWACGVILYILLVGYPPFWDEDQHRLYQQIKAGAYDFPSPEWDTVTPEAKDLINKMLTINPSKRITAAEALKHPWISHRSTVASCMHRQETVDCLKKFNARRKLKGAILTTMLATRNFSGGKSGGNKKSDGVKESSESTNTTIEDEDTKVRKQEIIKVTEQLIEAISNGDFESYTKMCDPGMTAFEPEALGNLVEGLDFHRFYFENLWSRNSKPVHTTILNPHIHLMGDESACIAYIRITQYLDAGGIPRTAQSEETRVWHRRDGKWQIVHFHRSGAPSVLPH", "experiment": "Navigating the Kinome. Panel member name: CAMK2A", "format": "functional"}, "[14]": {"molecular_target": "Platelet-derived growth factor receptor alpha (Homo sapiens, UniProt P16234)", "experiment": "Navigating the Kinome. Panel member name: PDGFRA", "format": "functional"}, "[15]": {"molecular_target": "Tyrosine-protein kinase BTK (Homo sapiens, UniProt Q06187)", "format": "functional"}, "Focal adhesion kinase 1": {"molecular_target": "Focal adhesion kinase 1 (Homo sapiens, UniProt Q05397)", "sequence (Q05397 whole entry)": "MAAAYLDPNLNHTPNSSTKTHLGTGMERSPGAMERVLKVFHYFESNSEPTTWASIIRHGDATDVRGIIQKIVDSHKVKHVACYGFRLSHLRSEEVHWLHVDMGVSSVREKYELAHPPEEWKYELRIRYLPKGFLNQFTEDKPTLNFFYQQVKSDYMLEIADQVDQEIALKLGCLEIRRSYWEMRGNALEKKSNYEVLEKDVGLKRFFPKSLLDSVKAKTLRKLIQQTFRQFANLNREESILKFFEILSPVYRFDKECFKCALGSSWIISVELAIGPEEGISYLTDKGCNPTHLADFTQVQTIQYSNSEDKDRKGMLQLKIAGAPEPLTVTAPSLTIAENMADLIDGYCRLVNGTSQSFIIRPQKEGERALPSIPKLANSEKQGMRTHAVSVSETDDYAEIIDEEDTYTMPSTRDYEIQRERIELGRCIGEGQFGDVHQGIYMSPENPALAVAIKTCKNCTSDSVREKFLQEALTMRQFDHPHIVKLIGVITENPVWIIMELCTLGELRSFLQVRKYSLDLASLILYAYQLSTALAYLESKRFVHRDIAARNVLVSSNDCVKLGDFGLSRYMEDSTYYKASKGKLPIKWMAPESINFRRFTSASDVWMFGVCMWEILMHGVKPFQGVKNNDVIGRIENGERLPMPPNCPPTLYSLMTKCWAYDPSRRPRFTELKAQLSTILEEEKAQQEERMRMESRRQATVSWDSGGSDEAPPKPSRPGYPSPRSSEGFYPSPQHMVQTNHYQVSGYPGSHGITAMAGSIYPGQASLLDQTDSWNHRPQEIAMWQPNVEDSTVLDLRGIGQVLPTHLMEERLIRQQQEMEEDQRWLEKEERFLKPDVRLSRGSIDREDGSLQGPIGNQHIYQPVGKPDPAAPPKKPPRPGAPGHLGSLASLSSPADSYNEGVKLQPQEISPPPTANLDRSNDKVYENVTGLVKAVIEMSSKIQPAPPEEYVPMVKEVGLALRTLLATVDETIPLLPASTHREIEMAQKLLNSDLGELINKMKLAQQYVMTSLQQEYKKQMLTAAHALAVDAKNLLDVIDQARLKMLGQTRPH", "format": "functional"}, "[16]": {"molecular_target": "Tyrosine-protein kinase Lck (Homo sapiens, UniProt P06239)", "sequence (P06239 whole entry)": "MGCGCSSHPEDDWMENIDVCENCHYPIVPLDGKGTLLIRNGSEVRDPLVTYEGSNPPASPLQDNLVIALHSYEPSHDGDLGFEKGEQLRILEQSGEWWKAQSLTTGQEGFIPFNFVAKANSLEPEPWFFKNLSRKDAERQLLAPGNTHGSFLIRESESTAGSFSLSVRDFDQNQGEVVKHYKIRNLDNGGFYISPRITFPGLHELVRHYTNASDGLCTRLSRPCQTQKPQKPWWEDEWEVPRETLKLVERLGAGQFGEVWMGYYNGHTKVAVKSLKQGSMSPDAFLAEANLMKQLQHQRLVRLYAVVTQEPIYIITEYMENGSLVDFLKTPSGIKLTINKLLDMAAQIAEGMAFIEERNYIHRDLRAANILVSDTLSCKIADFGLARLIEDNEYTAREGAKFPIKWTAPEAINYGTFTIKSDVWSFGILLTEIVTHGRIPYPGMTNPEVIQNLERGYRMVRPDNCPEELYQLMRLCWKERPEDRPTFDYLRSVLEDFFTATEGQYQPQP", "format": "functional"}, "[17]": {"molecular_target": "Cyclin-dependent kinase 8 (Homo sapiens, UniProt P49336)", "sequence (P49336 whole entry)": "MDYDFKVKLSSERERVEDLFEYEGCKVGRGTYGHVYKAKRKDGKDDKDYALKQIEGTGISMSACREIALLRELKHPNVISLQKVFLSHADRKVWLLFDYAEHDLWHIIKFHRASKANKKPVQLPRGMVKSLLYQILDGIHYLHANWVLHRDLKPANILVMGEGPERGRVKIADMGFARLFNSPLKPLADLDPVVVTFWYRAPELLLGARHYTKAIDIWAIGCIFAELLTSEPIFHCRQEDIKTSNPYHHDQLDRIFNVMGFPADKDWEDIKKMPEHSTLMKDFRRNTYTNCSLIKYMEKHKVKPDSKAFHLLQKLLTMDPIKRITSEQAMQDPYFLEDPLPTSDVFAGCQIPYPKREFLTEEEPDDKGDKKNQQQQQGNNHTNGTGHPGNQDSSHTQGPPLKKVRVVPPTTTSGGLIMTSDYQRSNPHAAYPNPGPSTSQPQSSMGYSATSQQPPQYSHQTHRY", "experiment": "Navigating the Kinome. Panel member name: CDK8", "format": "functional"}, "[18]": {"molecular_target": "Proto-oncogene tyrosine-protein kinase receptor Ret (Homo sapiens, UniProt P07949)", "sequence (P07949 whole entry)": "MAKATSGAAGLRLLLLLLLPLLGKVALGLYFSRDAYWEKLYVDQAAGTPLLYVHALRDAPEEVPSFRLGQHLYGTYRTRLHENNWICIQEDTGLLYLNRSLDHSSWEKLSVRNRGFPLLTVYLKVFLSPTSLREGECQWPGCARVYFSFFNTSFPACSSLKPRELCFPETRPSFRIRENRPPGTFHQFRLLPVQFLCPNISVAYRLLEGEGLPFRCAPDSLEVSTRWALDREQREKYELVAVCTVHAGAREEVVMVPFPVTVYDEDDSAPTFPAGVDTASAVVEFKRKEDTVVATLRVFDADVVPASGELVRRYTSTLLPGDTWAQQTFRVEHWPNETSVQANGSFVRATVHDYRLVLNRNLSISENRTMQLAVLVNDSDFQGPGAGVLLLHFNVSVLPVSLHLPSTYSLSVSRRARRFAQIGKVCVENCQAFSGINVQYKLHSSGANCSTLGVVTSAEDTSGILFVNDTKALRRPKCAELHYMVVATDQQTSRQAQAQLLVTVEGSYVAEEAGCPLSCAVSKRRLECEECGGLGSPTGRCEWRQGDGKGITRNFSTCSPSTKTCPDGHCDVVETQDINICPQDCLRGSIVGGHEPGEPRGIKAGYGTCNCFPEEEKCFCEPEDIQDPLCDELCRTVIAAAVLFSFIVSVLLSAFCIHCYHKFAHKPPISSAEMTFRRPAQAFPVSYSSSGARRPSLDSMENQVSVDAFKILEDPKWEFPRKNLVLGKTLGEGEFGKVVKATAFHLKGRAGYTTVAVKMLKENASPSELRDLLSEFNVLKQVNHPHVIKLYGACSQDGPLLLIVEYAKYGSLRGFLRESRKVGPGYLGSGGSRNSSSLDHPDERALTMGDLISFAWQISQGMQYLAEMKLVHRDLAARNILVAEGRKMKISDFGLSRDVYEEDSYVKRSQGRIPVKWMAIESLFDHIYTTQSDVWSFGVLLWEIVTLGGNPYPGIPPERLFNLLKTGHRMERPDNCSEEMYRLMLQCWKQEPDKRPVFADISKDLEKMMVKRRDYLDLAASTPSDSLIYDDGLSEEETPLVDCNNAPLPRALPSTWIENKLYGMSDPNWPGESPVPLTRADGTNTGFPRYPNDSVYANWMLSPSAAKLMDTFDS", "format": "functional"}, "Wee1-like protein kinase": {"molecular_target": "Wee1-like protein kinase (Homo sapiens, UniProt P30291)", "experiment": "Navigating the Kinome. Panel member name: WEE1", "format": "functional"}, "[19]": {"molecular_target": "Cell division cycle 7-related protein kinase (Homo sapiens, UniProt O00311)", "format": "functional"}, "[20]": {"molecular_target": "Glycogen synthase kinase-3 beta (Homo sapiens, UniProt P49841)", "format": "functional"}, "[21]": {"molecular_target": "Dual specificity tyrosine-phosphorylation-regulated kinase 1B (Homo sapiens, UniProt Q9Y463)", "experiment": "Navigating the Kinome. Panel member name: DYRK1B", "format": "functional"}, "[22]": {"molecular_target": "Cyclin-dependent kinase 9 (Homo sapiens, UniProt P50750)", "sequence (P50750 whole entry)": "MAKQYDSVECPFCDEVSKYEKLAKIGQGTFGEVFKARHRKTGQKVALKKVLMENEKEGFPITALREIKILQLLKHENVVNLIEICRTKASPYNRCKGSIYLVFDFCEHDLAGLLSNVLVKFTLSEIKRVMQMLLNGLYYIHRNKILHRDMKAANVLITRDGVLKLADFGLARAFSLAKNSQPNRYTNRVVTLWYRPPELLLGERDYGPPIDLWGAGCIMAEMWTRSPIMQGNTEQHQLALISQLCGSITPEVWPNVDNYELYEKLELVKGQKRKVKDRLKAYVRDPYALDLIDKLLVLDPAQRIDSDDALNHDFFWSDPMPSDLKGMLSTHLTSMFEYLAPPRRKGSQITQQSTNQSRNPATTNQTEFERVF", "format": "functional"}}, "note": "Calls of active or inactive are those of the source.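 Throughout, for AC50: cells exposed to compound for roughly 70 hours or longer before luminescence read.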", "data": [{"smiles": "CC/N=C1\\S/C(=C\\c2cc(C)n(-c3ccccc3F)c2C)C(=O)N1CC", "values": [{"measurement": "EC50", "setting": "[1]", "value": "> 25 µM (inactive)"}, {"measurement": "EC50", "setting": "[2]", "value": "> 25 µM (inactive)"}, {"measurement": "EC50", "setting": "[3]", "value": "> 25 µM (inactive)"}, {"measurement": "EC50", "setting": "[4]", "value": "> 25 µM (inactive)"}]}, {"smiles": "c1cc(SC2CCCCC2)cc(-c2nc3cnccn3c2NC2CCCCC2)c1", "values": [{"measurement": "IC50", "setting": "CHO", "value": "23.4 µM (inactive)"}, {"measurement": "IC50", "setting": "Beta Lactamase", "value": "4.83 µM (active)"}, {"measurement": "AC50", "setting": "[5]", "value": "1.58 µM (active)"}]}, {"smiles": "N#CC(c1ccccc1)c1c(Cl)cnn(Cc2ccc3ccccc3c2)c1=O", "note": "(stereo unspecified)", "values": [{"measurement": "IC50", "setting": "[6]", "value": "3.04 µM (active)"}, {"measurement": "IC50", "setting": "[7]", "value": "3.04 µM (active)"}]}, {"smiles": "CCOc1nc(Nc2ccccc2)nc(Nc2ccc(-c3nc4ccccc4o3)cc2)n1", "values": [{"measurement": "IC50", "setting": "[8]", "value": "> 99 µM (inactive)"}, {"measurement": "IC50", "setting": "[9]", "value": "> 99 µM (inactive)"}]}, {"smiles": "CC(C)(C)c1cc(NC(=O)Nc2cccc3ccccc23)n(-c2cccc(C(=O)N(CCN)CCO)c2)n1", "values": [{"measurement": "Ki", "setting": "[10]", "value": "> 6.31 µM (inactive)"}, {"measurement": "Ki", "setting": "[11]", "value": "> 6.31 µM (inactive)"}, {"measurement": "Ki", "setting": "[12]", "value": "2.51 µM (active)"}, {"measurement": "Ki", "setting": "[13]", "value": "> 7.94 µM (inactive)"}, {"measurement": "Ki", "setting": "[14]", "value": "0.794 µM (active)"}, {"measurement": "Ki", "setting": "[15]", "value": "> 6.31 µM (inactive)"}, {"measurement": "Ki", "setting": "Focal adhesion kinase 1", "value": "> 6.31 µM (inactive)"}, {"measurement": "Ki", "setting": "[16]", "value": "> 6.31 µM (inactive)"}, {"measurement": "Ki", "setting": "[17]", "value": "3.16 µM (active)"}, {"measurement": "Ki", "setting": "[18]", "value": "1.26 µM (active)"}]}, {"smiles": "Fc1ccc(Nc2ncnc(Nc3ccc4cn[nH]c4c3)n2)cc1", "values": [{"measurement": "Ki", "setting": "Wee1-like protein kinase", "value": "> 3.16 µM (inactive)"}, {"measurement": "Ki", "setting": "[19]", "value": "0.0501 µM (active)"}]}, {"smiles": "CC1c2cccn2CCN1Cc1nc2scc(-c3ccco3)c2c(=O)[nH]1", "note": "(stereo unspecified)", "values": [{"measurement": "Ki", "setting": "[20]", "value": "3.16 µM (active)"}, {"measurement": "Ki", "setting": "[21]", "value": "2.51 µM (active)"}, {"measurement": "Ki", "setting": "[22]", "value": "1.58 µM (active)"}]}]}
